Source: US12233114B2, “Method for treating diabetes” (Novo Nordisk A/S, priority 2016, dated 2025)

Columns and labels:
[1] = test system: adult human subjects with type 2 diabetes that were at high risk for cardiovascular events; assay: Cardiovascular outcomes trial (DEVOTE): insulin degludec vs insulin glargine, time to first MACE; format: in vivo; details: for Hazard Ratio (95% CI), time to first MACE: insulin degludec vs insulin glargine
From the text: This trial concerned incidence of cardiovascular events in adult human subjects with type 2 diabetes that were at high risk for cardiovascular events, including such subjects with existing cardiovascular disease. The primary objective of this trial was to confirm the cardiovascular safety of insulin degludec (Tresiba®) compared to that of insulin glargine (Lantus®). The secondary objective was to assess efficacy of insulin degludec on markers of glycaemic control and to assess safety on other parameters in subjects with type 2 diabetes that were at high risk for cardiovascular events.
An 18-month recruitment period was planned. […] Subjects were randomised 1:1 in a double-blinded manner to receive blinded insulin degludec or blinded insulin glargine, each added to standard of care. Subjects continued their current antidiabetic therapy except for the basal insulin component (if any), which was replaced by the investigational product. Treatment with bolus insulin was allowed.
Subjects not currently on insulin were to initiate basal insulin at a dose of 10 units OD given between dinner and bedtime. Subjects receiving basal insulin OD were to transfer unit-to-unit from their previous basal insulin dose. Subjects receiving twice-daily (or more) basal insulin transferred to an OD regimen and the pre-trial total basal insulin dose was reduced by 20-30% in accordance with the label for insulin glargine. For subjects receiving premixed/biphasic insulin OD, the basal component was calculated and transferred unit-to-unit to investigational product OD. The bolus insulin component was calculated and transferred unit-to-unit to bolus insulin and given at the most appropriate meal at the investigator's discretion. For subjects receiving premixed/biphasic insulin twice daily (or more), the total basal component was calculated, reduced by 20-30% and transferred to investigational product OD; the bolus component was to be calculated and transferred to insulin aspart and dosed with the most appropriate meals at the investigator's discretion. Subjects treated with bolus insulin as part of their current insulin regimen could be transferred to insulin aspart unit-to-unit from their previous bolus insulin dose, at the investigator's discretion.
Subjects adjusted their basal insulin dose weekly, aiming for a pre-breakfast (fasting) SMPG value of 71-90 mg/dL (4.0-5.0 mmol/L) by using the algorithm in Table 6. The basal dose was adjusted based on the lowest of three pre-breakfast SMPG values, preferably measured two days prior to dose adjustment and on the day of the dose adjustment. No maximum dose was specified. The investigators were to guide the subjects in adjusting their insulin at clinic visits and phone contacts. Investigators and subjects were recommended to follow the basal insulin titration algorithm. Importantly, however, the decision of adjustment of insulin doses was to be based on all available information, such as symptoms of hypoglycaemia and hyperglycaemia, previous responses to dose adjustments and SMPG values other than those required as per protocol.
Intensification with bolus insulin and other antidiabetic treatments was allowed during the course of the trial. The starting dose of bolus insulin was 4 units per relevant meal. […] Titration of bolus insulin could also be done based on carbohydrate counting. This was to be done at the investigator's discretion.
Subjects received insulin degludec or insulin glargine by subcutaneous administrations once daily in addition to the subject's standard treatment. Basal insulin was injected in the thigh, the upper arm (deltoid area) or the abdominal wall. The formulations were administered in the form of an aqueous solution comprising insulin degludec or insulin glargine, using identical 100 units/mL, 10-mL vials and 1-mL syringes.
The results of this trial may be presented herein as a number or fraction of subjects experiencing an event.

[2] = test system: human subjects with T2DM inadequately controlled on insulin glargine in combination with metformin; assay: Example 3: 26-week open-label trial, IDegLira vs IGlar, both in combination with metformin; format: in vivo; details: 26 weeks of treatment
Procedure: A 26-week multinational, multi-centre, open-label, two-arm parallel, randomised, treat-to-target trial in 557 human subjects with T2DM inadequately controlled on insulin glargine (IGlar, Lantus®) at a daily dose between 20-50 units (both inclusive) in combination with metformin was carried out. The primary objective was to confirm the efficacy of IDegLira in controlling glycaemia in human subjects with T2DM on previous treatment with IGlar. The secondary objective was to compare safety of IDegLira to IGlar after 26 weeks of treatment and to confirm superiority of IDegLira versus IGlar after 26 weeks of treatment on one or more of the following: change from baseline in HbA1c, confirmed hypoglycaemia, change from baseline in body weight.
IGlar was given at a start dose equal to the pre-trial daily dose of IGlar (dose-to-dose switch) and was titrated according to a predefined titration algorithm with no maximum dose.
The trial included a screening visit to assess subjects' eligibility and weekly visits/phone contacts during the 26-week treatment period.
Subjects randomised to treatment with IDegLira discontinued the pre-trial IGlar treatment prior to initiating IDegLira treatment with a start dose of 16 dose steps, equivalent to 16 units insulin degludec and 0.6 mg liraglutide. […] Subjects randomised for treatment with IGlar […] on the pre-trial, stable IGlar treatment prior to initiating IGlar treatment with a start dose of IGlar equal to the pretrial daily dose (dose-to-dose switch). No predefined maximum dose was specified for IGlar treatment.
Subjects received IDegLira or IGlar by subcutaneous administration once daily in addition to metformin. […] IGlar was to be injected according to the approved label and using the pre-trial dosing time and injection site throughout the trial.

[3] = test system: human subjects with type 2 diabetes inadequately controlled with basal insulin and metformin; details: in vivo
Procedure: (§1) A 26-week randomised, parallel two-arm, double-blind, multi-centre, multinational, treat-to-target trial in 413 human subjects with type 2 diabetes inadequately controlled with basal insulin and metformin with or without SU or glinides was carried out comparing the efficacy and safety of insulin degludec+liraglutide (Xultophy®, IDegLira) once daily with insulin degludec (Tresiba®, IDeg) once daily both added on to metformin. […] The secondary objective was to compare the overall efficacy and safety parameters of IDegLira and IDeg after 26 weeks of treatment. All trial endpoints were collected and assessed throughout the entire duration of the trial.
(§2) Eligible subjects were randomised 1:1 to either once daily IDegLira or once daily IDeg, both in combination with metformin. […] For each subject, the duration of the trial was to be approximately 29 weeks: up to 2 weeks between screening and first treatment, 26 weeks of treatment and at least 1 week of wash-out at the end of the trial.
(§3) The IDegLira dosing unit is defined as a dose step. One (1) IDegLira dose step consists of 1 unit insulin degludec and 0.036 mg liraglutide. Treatment with IDegLira was initiated at 16 dose steps containing 16 units insulin degludec and 0.6 mg liraglutide. Adjustment of the IDegLira dose was performed twice weekly based on the mean of 3 preceding daily fasting SMPG values on 3 consecutive days. Adjustments occurred in 2 dose steps aiming at a fasting glycaemic target of 4.0-5.0 mmol/L (72-90 mg/dL). The maximum allowed dose was 50 dose steps (50 units IDeg/1.8 mg liraglutide). IDeg treatment was initiated with 16 units, and titrated twice weekly to the fasting glycaemic target of 4.0-5.0 mmol/L (72-90 mg/dL) based on the mean fasting SMPG from 3 proceeding measurements as described for IDegLira. The maximum allowed dose was 50 units.
(§4) Subjects received IDegLira or IDeg by subcutaneous administration in addition to metformin. IDegLira or IDeg was injected subcutaneously in the thigh, upper arm (deltoid region) or abdomen once daily preferably at the same time every day. The injection area chosen were to remain unchanged throughout the trial, but rotation within the area was recommended.

[4] = test system: adult human subjects with type 2 diabetes that were at high risk for cardiovascular events; assay: CV risk score model and subgroup analysis of MACE based on the DEVOTE trial; format: in vivo; set-up: key to Estimate (risk of MACE with IDeg compared to IGlar): hazard ratio of MACE, IDeg vs IGlar; details: for Estimated hazard ratio (HR) for MACE by CV risk score: IDeg/IGlar
From the text: Based on the DEVOTE trial, a cardiovascular (CV) risk score has been developed for individuals with established cardiovascular risk. This risk score was developed using available medical history, baseline information and cardiovascular events occurring during the trial. […] The variables are listed in descending order according to their impact on the overall risk of major adverse cardiovascular events (MACE), here consisting of cardiovascular death, non-fatal myocardial infarction, or non-fatal stroke. The combination of these variables yields an algorithm that can be used to determine the risk of future MACEs and to determine the benefit of being treated with IDeg compared to IGlar.
The CV risk score and estimated MACE hazard ratio for CV risk scores by quartiles based on number of events are presented in FIG. 1. […] This benefit is seen regardless of which of the individual predictors contribute to the high score.
For example, subjects with a BMI ≥30 kg/m^2 and diastolic blood pressure ≥80 mmHg, and subjects with a diastolic blood pressure ≥80 mmHg who were treated with statins would have a benefit with IDeg compared to IGlar in terms of risk of MACE (Table 11).

[5] = test system: human subjects with type 2 diabetes inadequately controlled with basal insulin and metformin; assay: Example 2: 26-week double-blind trial, IDegLira vs IDeg, both added on to metformin; details: 26 weeks of treatment
Procedure: as §1, §2, §3, §4

## IGlar: Insulin glargine (Lantus®), commercially available basal insulin, active comparator
[1]; all subjects
  n, number of subjects with a first MACE: 356
  proportion of subjects with a first MACE: 9.3%
[1]; subgroup Africa
  n, number of subjects with a first MACE: 18
  proportion of subjects with a first MACE: 14.4%
[1]; subgroup Asia
  n, number of subjects with a first MACE: 31
  proportion of subjects with a first MACE: 9.4%
[1]; subgroup Female
  n, number of subjects with a first MACE: 131
  proportion of subjects with a first MACE: 9.1%
[1]; subgroup Male
  n, number of subjects with a first MACE: 225
  proportion of subjects with a first MACE: 9.5%
[2]
  Mean body weight increase: 1.8 kg
  proportion of subjects experiencing confirmed hypoglycaemic episodes during the trial: 49.1%
  ΔDiastolic blood pressure (change from baseline): −1.4 mmHG
  ΔHeart rate (change from baseline): −0.2 bpm
  ΔSystolic blood pressure (change from baseline): −0.2 mmHG

## N^εB29—(N^α—(HOOC(CH2)14CO)-γ-Glu) desB30 human insulin [IDeg]
[3]
  Adverse event and tolerability profiles: consistent with previous findings
  ΔHeart rate (change from baseline): −0.6 bpm
[1]; all subjects
  n, number of subjects with a first MACE: 325
  proportion of subjects with a first MACE: 8.5%
[1]; all subjects, MACE = CV death, non-fatal MI, non-fatal stroke, Cox model
  Hazard Ratio (95% CI), time to first MACE: 0.91 (0.78;1.06)
[1]; subgroup Africa
  n, number of subjects with a first MACE: 6
  proportion of subjects with a first MACE: 4.6%
[1]; subgroup Asia
  n, number of subjects with a first MACE: 13
  proportion of subjects with a first MACE: 4.1%
[1]; subgroup Female
  n, number of subjects with a first MACE: 99
  proportion of subjects with a first MACE: 7.0%
[1]; subgroup Male
  n, number of subjects with a first MACE: 226
  proportion of subjects with a first MACE: 9.4%
[1]; subgroup Region: Africa
  Hazard Ratio (95% CI), time to first MACE: 0.30 (0.12; 0.77)
[1]; subgroup Region: Asia
  Hazard Ratio (95% CI), time to first MACE: 0.42 (0.22; 0.81)
[1]; subgroup Sex: Female
  Hazard Ratio (95% CI), time to first MACE: 0.76 (0.59; 0.99)
[1]; subgroup Sex: Male
  Hazard Ratio (95% CI), time to first MACE: 0.99 (0.83; 1.20)
[4]; CV risk score quartile High
  Estimated hazard ratio (HR) for MACE by CV risk score: 1.04
[4]; CV risk score quartile Low
  Estimated hazard ratio (HR) for MACE by CV risk score: 1.02
[4]; CV risk score quartile Moderate
  Estimated hazard ratio (HR) for MACE by CV risk score: 0.89
[4]; CV risk score quartile Very High
  Estimated hazard ratio (HR) for MACE by CV risk score: 0.67
[4]; patients who have a high CV risk score
  hazard ratio IDeg/IGlar, risk of MACE: < 1
[4]; subgroup Age 65-75 years AND systolic blood pressure <140 mmHg
  Estimate (risk of MACE with IDeg compared to IGlar): 0.70
[4]; subgroup Age <65 years AND diastolic blood pressure ≥80 mmHg
  Estimate (risk of MACE with IDeg compared to IGlar): 0.64
[4]; subgroup Age <65 years AND treated with statins
  Estimate (risk of MACE with IDeg compared to IGlar): 0.75
[4]; subgroup BMI ≥30 kg/m^2 AND diastolic blood pressure ≥80 mmHg
  Estimate (risk of MACE with IDeg compared to IGlar): 0.68
[4]; subgroup Diastolic blood pressure <90 mmHg AND HDL ≥1.0 mmol/L
  Estimate (risk of MACE with IDeg compared to IGlar): 0.80
[4]; subgroup Diastolic blood pressure ≥80 mmHg AND treated with statins
  Estimate (risk of MACE with IDeg compared to IGlar): 0.73
[4]; subgroup Diastolic blood pressure ≥80 mmHg AND triglycerides >1.7 mmol/L
  Estimate (risk of MACE with IDeg compared to IGlar): 0.69
[4]; subgroup Established CV risk AND HDL ≥1.0 mmol/L
  Estimate (risk of MACE with IDeg compared to IGlar): 0.78
[4]; subgroup Established CV risk AND diastolic blood pressure ≥80 mmHg
  Estimate (risk of MACE with IDeg compared to IGlar): 0.76
[4]; subgroup Established CV risk AND pulse ≥70 bpm
  Estimate (risk of MACE with IDeg compared to IGlar): 0.80
[4]; subgroup Height <170 cm AND treated with statins
  Estimate (risk of MACE with IDeg compared to IGlar): 0.75
[4]; subgroup Non-White AND diastolic blood pressure <90 mmHg
  Estimate (risk of MACE with IDeg compared to IGlar): 0.64
[4]; subgroup Not Hispanic or Latino AND Non-White
  Estimate (risk of MACE with IDeg compared to IGlar): 0.64
[4]; subgroup Not Hispanic or Latino AND triglycerides >1.7 mmol/L
  Estimate (risk of MACE with IDeg compared to IGlar): 0.79
[4]; subgroup Previous smoker AND age <65 years
  Estimate (risk of MACE with IDeg compared to IGlar): 0.73
[4]; subgroup Previous smoker AND cholesterol ≥3 mmol/L
  Estimate (risk of MACE with IDeg compared to IGlar): 0.79
[4]; subgroup Previous smoker AND diastolic blood pressure ≥80 mmHg
  Estimate (risk of MACE with IDeg compared to IGlar): 0.66
[4]; subgroup Previous smoker AND treated with statins
  Estimate (risk of MACE with IDeg compared to IGlar): 0.79
[4]; subgroup Previous smoker AND triglycerides >1.7 mmol/L
  Estimate (risk of MACE with IDeg compared to IGlar): 0.73
[4]; subgroup Pulse ≥70 bpm AND diastolic blood pressure ≥80 mmHg
  Estimate (risk of MACE with IDeg compared to IGlar): 0.74
[4]; subgroup Pulse ≥70 bpm AND triglycerides >1.7 mmol/L
  Estimate (risk of MACE with IDeg compared to IGlar): 0.76
[4]; subgroup Pulse ≥70 mmHg AND treated with statins
  Estimate (risk of MACE with IDeg compared to IGlar): 0.72
[4]; subgroup Systolic blood pressure <140 mmHg AND HDL ≥1.0 mmol/L
  Estimate (risk of MACE with IDeg compared to IGlar): 0.73
[4]; subgroup Triglycerides >1.7 mmol/L AND HDL ≥1.0 mmol/L
  Estimate (risk of MACE with IDeg compared to IGlar): 0.69
[4]; subgroup Triglycerides >1.7 mmol/L AND treated with statins
  Estimate (risk of MACE with IDeg compared to IGlar): 0.78
[5]
  ΔDiastolic blood pressure (change from baseline): −0.7 mmHG
  ΔSystolic blood pressure (change from baseline): −1.7 mmHG
